The source of these data is PMC3773398, “The Subcellular Localization of the Receptor for Platelet-Activating Factor in Neutrophils Affects Signaling and Activation Characteristics” (Clinical and Developmental Immunology, 2013).

The target in assay [1] is T1, PAFR (receptor for platelet-activating factor) (Homo sapiens, UniProt P25105).
T1 construct: gene PTAFR
The experiment in a line: agonist-induced superoxide release (isoluminol chemiluminescence) in human neutrophils, abolished by PAFR antagonist WEB2086; Ca2+ mobilization EC50 […]. The class given is cell-based. In general terms: Calcium assays in cells follow changes in intracellular calcium, usually with a dye or a luminescent sensor.

Assay [2] concerns the target T1, PAFR (receptor for platelet-activating factor). The experiment in a line: antagonism of PAF ([…])-induced superoxide release in human neutrophils. Format: cell-based.

T1 sequence (P25105 whole entry): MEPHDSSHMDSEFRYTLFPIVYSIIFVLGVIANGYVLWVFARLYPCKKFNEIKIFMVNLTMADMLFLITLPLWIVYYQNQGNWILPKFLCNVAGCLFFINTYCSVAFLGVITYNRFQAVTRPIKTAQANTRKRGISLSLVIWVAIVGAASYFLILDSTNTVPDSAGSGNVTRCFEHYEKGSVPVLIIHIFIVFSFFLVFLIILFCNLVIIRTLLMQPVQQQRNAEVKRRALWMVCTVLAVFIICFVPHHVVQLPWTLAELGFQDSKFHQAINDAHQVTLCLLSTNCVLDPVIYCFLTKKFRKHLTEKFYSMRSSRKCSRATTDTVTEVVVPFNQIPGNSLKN

Broadly, the EC50 is the concentration needed to bring the measured effect to its halfway point. Molecule `CCCCCCCCCCCCCCCCOC[C@H](COP(=O)([O-])OCC[N+](C)(C)C)OC(C)=O` [PAF] gave an EC50 in assay [1] of around 800 nM.

Regarding `Cc1nnc2n1-c1sc(CCC(=O)N3CCOCC3)cc1C(c1ccccc1Cl)=NC2` [WEB2086], in assay [2], the “antagonism of PAF (100 nM)-induced superoxide release in human neutrophils” value is “a specific PAFR antagonist (WEB2086) completely and selectively abolished the release of ROS upon PAF stimulation”.
